Converted amounts (≈) assume the structure as drawn. One block for each compound: values may come before it.
Legend:
[1] = system: collagen-induced arthritis (CIA) in male DBA/1 mice; assay: Murine collagen-induced arthritis (CIA) model, Example 2; assay type: in vivo, mouse
Protocol: Four non-antibacterial analogues of minocycline (J, W, AF and AT) were synthesized and tested in the murine model of the disease, collagen-induced arthritis (CIA) (See supra). Male DBA/1 mice were immunized intradermally with 200 μg of bovine type II collagen and boosted with collagen three weeks later. Minocycline and four non-antibacterial minocycline derivatives were administered i.p. beginning after disease onset. Paw thickness was measured and animals were scored daily.
(§1) • 1. Male DBA/1 mice were immunized i.d. with an emulsion of 200 μg bovine type II collagen in Complete Freund's Adjuvant. • 2. On day 21, mice received i.d. boost of 100 μg collagen in Incomplete Freund's Adjuvant • 3. Compounds were administered i.p. daily for 7 days starting from disease onset (day 3-4 after boost). • 4. Foot swelling was measured by an engineering micrometer and disease severity was scored accordingly (1, erythema and mild swelling confined to the tarsal or ankle joint; 2, erythema and mild swelling extending from the ankle to the mid-foot; 3, erythema and moderate swelling extending from the ankle to the metatarsal joints; 4, erythema and severe swelling encompassing the ankle, foot, and digits). • 5. Change (Δ) of paw thickness=sum of paw thickness from 4 paws of a mouse (experimental)−sum of baseline paw thickness from 4 paws of the same mouse. • 6. % inhibition=cumulative A paw thickness (disease group−compound-treated group)/cumulative A paw thickness (disease group)

MMP-9 = assay: Paw extract biomarker ELISA, CIA mice: MMP-9; assay type: in vivo, mouse; settings: paw extracts from CIA mice
Protocol: as §1
(§2) • 1. Paws were collected from mice after 5-7 days of dosing and dissected free of skin. • 2. The paws were then homogenized in ice-cold PBS (2 ml/4 paws/mouse) containing 1× protease inhibitor using a Polytron homogenizer. • 3. Debris and particles were removed from the homogenized samples by centrifugation. • 4. Liquid layers were collected for MMP-9, IL-1, IL-6, RANKL, MCP-1, and TNFα analysis using ELISA kits from R & D System.

IL-1 = assay: Paw extract biomarker ELISA, CIA mice: IL-1; assay type: in vivo, mouse; settings: paw extracts from CIA mice
Protocol: as §1, §2

IL-6 = assay: Paw extract biomarker ELISA, CIA mice: IL-6; assay type: in vivo, mouse; settings: paw extracts from CIA mice
Protocol: as §1, §2

MCP-1 = assay: Paw extract biomarker ELISA, CIA mice: MCP-1; assay type: in vivo, mouse; settings: paw extracts from CIA mice
Protocol: as §1, §2

[2] = system: cytokines (IL-1, IL-6, RANKL and MCP-1) and a matrix metalloproteinase (MMP-9); assay: Paw extract biomarker ELISA, CIA mice: whole panel (statements in words); assay type: in vivo, mouse
Protocol: as §1, §2

RANKL = assay: Paw extract biomarker ELISA, CIA mice: RANKL; assay type: in vivo, mouse; settings: paw extracts from CIA mice
Protocol: as §1, §2

S. aureus RN450 = assay: Antibacterial activity MIC, Gram+ (Table 9); assay type: cell-based; settings: Staphylococcus aureus, CAMHB, 35° C., approximately 18 hr
Protocol: (§3) 2 mg of each compound is dissolved in 100 μl of DMSO. The solution is then added to cation-adjusted Mueller Hinton broth (CAMHB), which results in a final compound concentration of 200 μg per ml. The tetracycline compound solutions are diluted to 50 μL volumes, with a test compound concentration of 0.098 μg/ml. Optical density (OD) determinations are made from fresh log-phase broth cultures of the test strains. Dilutions are made to achieve a final cell density of 1×10^6 CFU/ml. At OD=1, cell densities for different genera should be approximately:
(§4) 50 μl of the cell suspensions are added to each well of microtiter plates. The final cell density should be approximately 5×10^5 CFU/ml. These plates are incubated at 35° C. in an ambient air incubator for approximately 18 hr. The plates are read with a microplate reader and are visually inspected when necessary. The MIC is defined as the lowest concentration of the tetracycline compound that inhibits growth.

E. coli 25922 = assay: Antibacterial activity MIC, Gram- (Table 9); assay type: cell-based; settings: Escherichia coli, CAMHB, 35° C., approximately 18 hr
Protocol: as §3, §4

[3] = system: collagen-induced arthritis (CIA) in male DBA/1 mice; assay: CIA model, Example 3 (cumulative scores vs untreated controls); assay type: in vivo; settings: Mus musculus; Dose 25 mg/kg
Protocol: The CIA model data were acquired according to the following protocol: • 1. Male DBA/1 mice were anaesthetized by i.p. injection of ketamine/xylazine (1.25 mg/ml:0.25 mg/ml, 100 μl/mouse). • 2. Anaesthetized mice were immunized intradermally at the base of the tail with 0.1 or 0.2 ml of an emulsion composed of 100 or 200 μg bovine type II collagen in Complete Freund's Adjuvant (50 μl/spot x 2 or 4 spots). • 3. At day 21 after the immunization, mice received an intradermal boost of 100 μl of an emulsion composed of 100 μg bovine type II collagen in Incomplete Freund's Adjuvant (50 μl/spot x 2 spots) • 4. After onset of disease symptoms (usually 3-4 days after boost), tetracycline derivatives were administered daily into mice via intraperitoneal or oral routes for 8 to 15 days. Methotrexate (12 mg/kg/day) or dexmethasone (4 mg/kg/day) was used as a control for inflammation suppression. • 5. The disease severity was scored daily for 8-15 days after the appearance of the symptoms. Disease severity was graded as following: • a. Visual clinical score for the presence of inflammation in the fingers/toes of the forepaws and hindpaws: • 1. Erythema and mild swelling confined to the mid-foot (tarsals) or ankle joint • 2. Erythema and mild swelling extending from the ankle to the mid-foot • 3. Erythema and moderate swelling extending from the ankle to the metatarsal joints • 4. Erythema and severe swelling encompassing the ankle, foot, and digits. • b. Clinical swelling score for the presence of paw edema in the forepaws and hindpaws: • Paw thickness was measured daily by an engineering micrometer after isofluorane inhalation or ketamine/xylazine (1.25 mg/ml:0.25 mg/ml, 100 μl/mouse) i.p. injection.
Daily scores and paw swelling measurements for each treatment group of mice were added over the total observation period to obtain a cumulative score. Cumulative scores were compared between untreated controls and treated groups to determine tetracycline-induced inhibition.

Structure (SMILES): CN(Cc1cnc2nc(N)nc(N)c2n1)c1ccc(C(=O)N[C@@H](CCC(=O)O)C(=O)O)cc1 [Methotrexate, methotrexate, reference compound]
% Inhibition (Change in Paw Thickness) AVG ([1]; 12 mg/kg): 45%
% Inhibition (Clinical Score) AVG ([1]; 12 mg/kg): 25%
Change in Paw Thickness (mm) Mean ([1]; day 1 of dosing, 12 mg/kg/day i.p.): 0.77 mm
Change in Paw Thickness (mm) Mean ([1]; day 2 of dosing, 12 mg/kg/day i.p.): 0.68 mm
Change in Paw Thickness (mm) Mean ([1]; day 3 of dosing, 12 mg/kg/day i.p.): 0.71 mm
Change in Paw Thickness (mm) Mean ([1]; day 4 of dosing, 12 mg/kg/day i.p.): 0.68 mm
Change in Paw Thickness (mm) Mean ([1]; day 5 of dosing, 12 mg/kg/day i.p.): 0.67 mm
Change in Paw Thickness (mm) Mean ([1]; day 6 of dosing, 12 mg/kg/day i.p.): 0.56 mm
Change in Paw Thickness (mm) Mean ([1]; day 7 of dosing, 12 mg/kg/day i.p.): 0.45 mm
Change in Paw Thickness (mm) Mean ([1]; day 8 of dosing, 12 mg/kg/day i.p.): 0.28 mm
Percent level of Biomarker Tissue [c] Compared to Untreated Control, MMP-9 AVG (MMP-9): 52%
Percent level of Biomarker Tissue [c] Compared to Untreated Control, IL-1 AVG (IL-1): 16%
Percent level of Biomarker Tissue [c] Compared to Untreated Control, IL-6 AVG (IL-6): 20%
Percent level of Biomarker Tissue [c] Compared to Untreated Control, MCP-1 AVG (MCP-1): 37%
Footpad tissue levels of cytokines (IL-1, IL-6, RANKL and MCP-1) and MMP-9 after therapeutic treatment [2]: decreased

Structure (SMILES): C[C@@H]1C[C@H]2[C@@H]3CCC4=CC(=O)C=C[C@]4(C)[C@@]3(F)[C@@H](O)C[C@]2(C)[C@@]1(O)C(=O)CO [Dexamethasone, dexamethasone, reference compound]
% Inhibition (Change in Paw Thickness) AVG ([1]; 4 mg/kg): 82%
% Inhibition (Clinical Score) AVG ([1]; 4 mg/kg): 48%
Change in Paw Thickness (mm) Mean ([1]; day 1 of dosing, 4 mg/kg/day i.p.): 0.92 mm
Change in Paw Thickness (mm) Mean ([1]; day 2 of dosing, 4 mg/kg/day i.p.): 0.57 mm
Change in Paw Thickness (mm) Mean ([1]; day 3 of dosing, 4 mg/kg/day i.p.): 0.47 mm
Change in Paw Thickness (mm) Mean ([1]; day 4 of dosing, 4 mg/kg/day i.p.): −0.07 mm
Change in Paw Thickness (mm) Mean ([1]; day 5 of dosing, 4 mg/kg/day i.p.): 0.03 mm
Change in Paw Thickness (mm) Mean ([1]; day 6 of dosing, 4 mg/kg/day i.p.): −0.13 mm
Change in Paw Thickness (mm) Mean ([1]; day 7 of dosing, 4 mg/kg/day i.p.): 0.04 mm
Change in Paw Thickness (mm) Mean ([1]; day 8 of dosing, 4 mg/kg/day i.p.): −0.21 mm
Percent level of Biomarker Tissue [c] Compared to Untreated Control, MMP-9 AVG (MMP-9): 35%
Percent level of Biomarker Tissue [c] Compared to Untreated Control, IL-1 AVG (IL-1): 16%
Percent level of Biomarker Tissue [c] Compared to Untreated Control, IL-6 AVG (IL-6): 4%
Percent level of Biomarker Tissue [c] Compared to Untreated Control, MCP-1 AVG (MCP-1): 5%
Percent level of Biomarker Tissue [c] Compared to Untreated Control, RANKL AVG (RANKL): 10%

MIC (S. aureus RN450): 0.5 µg/mL (≈ 1.04 µM)
MIC (E. coli 25922): > 64 µg/mL
Structure (SMILES): CN(C)c1cc(C(F)(F)F)c(O)c2c1C[C@H]1C[C@H]3CC(O)=C(C(N)=O)C(=O)[C@@]3(O)C(O)=C1C2=O [BD]
inhibition in vivo at 25 mg/kg [3]: 44%

MIC (S. aureus RN450): 0.12 µg/mL (≈ 0.225 µM)
MIC (E. coli 25922): > 64 µg/mL
Structure (SMILES): CN(C)c1cc(C(=O)Nc2ccccc2)c(O)c2c1C[C@H]1C[C@H]3CC(O)=C(C(N)=O)C(=O)[C@@]3(O)C(O)=C1C2=O [AI]
inhibition in vivo at 25 mg/kg [3]: 62%

MIC (S. aureus RN450): 8 µg/mL (≈ 15.6 µM)
MIC (E. coli 25922): > 64 µg/mL
Structure (SMILES): CCC(=O)c1cc(N(C)C)c2c(c1O)C(=O)C1=C(O)[C@]3(O)C(=O)C(C(N)=O)=C(O)[C@@H](N(C)C)[C@@H]3C[C@@H]1C2 [Compound M]
inhibition in vivo at 25 mg/kg [3]: 25%

MIC (S. aureus RN450): 0.5 µg/mL (≈ 1.25 µM)
MIC (E. coli 25922): 32 µg/mL (≈ 80.3 µM)
Structure (SMILES): CN(C)[C@@H]1C(O)=C(C(N)=O)C(=O)[C@@]2(O)C(O)=C3C(=O)c4ccccc4C[C@H]3C[C@@H]12 [Q]
inhibition in vivo at 25 mg/kg [3]: 28%

MIC (S. aureus RN450): 1 µg/mL (≈ 2.2 µM)
MIC (E. coli 25922): > 64 µg/mL
Structure (SMILES): CN(C)c1cc(C2CC2)c(O)c2c1C[C@H]1C[C@H]3CC(O)=C(C(N)=O)C(=O)[C@@]3(O)C(O)=C1C2=O [Compound AV]
inhibition in vivo at 25 mg/kg [3]: 48%

MIC (S. aureus RN450): 0.5 µg/mL (≈ 1.03 µM)
MIC (E. coli 25922): > 64 µg/mL
Structure (SMILES): CN(C)c1cc(CC(C)(C)C)c(O)c2c1C[C@H]1C[C@H]3CC(O)=C(C(N)=O)C(=O)[C@@]3(O)C(O)=C1C2=O [AW]
inhibition in vivo at 25 mg/kg [3]: 39%

MIC (S. aureus RN450): 2 µg/mL (≈ 4.16 µM)
MIC (E. coli 25922): > 64 µg/mL
Structure (SMILES): CN(C)c1cc(-c2ccn[nH]2)c(O)c2c1C[C@H]1C[C@H]3CC(O)=C(C(N)=O)C(=O)[C@@]3(O)C(O)=C1C2=O [AC]
inhibition in vivo at 25 mg/kg [3]: 33%

From patent US20100190755A1, “TETRACYCLINE COMPOUNDS FOR THE TREATMENT OF RHEUMATOID ARTHRITIS AND RELATED METHODS OF TREATMENT” (priority 2008, published 2010)
